One block for each molecule: values may come before it.
Assays:
Estrogen receptor = Estrogen receptor (Homo sapiens, UniProt P03372); assay: Selectivity interaction (Estrogen alpha receptor binding assay, human recombinant ) EUB0000877a ESR1
[1] = target: T1, Serine/threonine-protein kinase Nek11 (Homo sapiens) (UniProt Q8NG66); assay: Selectivity interaction (KinomeScan (DiscoverX)) EUB0000595a NEK11; conditions: at 10 µM
T1 sequence (whole entry): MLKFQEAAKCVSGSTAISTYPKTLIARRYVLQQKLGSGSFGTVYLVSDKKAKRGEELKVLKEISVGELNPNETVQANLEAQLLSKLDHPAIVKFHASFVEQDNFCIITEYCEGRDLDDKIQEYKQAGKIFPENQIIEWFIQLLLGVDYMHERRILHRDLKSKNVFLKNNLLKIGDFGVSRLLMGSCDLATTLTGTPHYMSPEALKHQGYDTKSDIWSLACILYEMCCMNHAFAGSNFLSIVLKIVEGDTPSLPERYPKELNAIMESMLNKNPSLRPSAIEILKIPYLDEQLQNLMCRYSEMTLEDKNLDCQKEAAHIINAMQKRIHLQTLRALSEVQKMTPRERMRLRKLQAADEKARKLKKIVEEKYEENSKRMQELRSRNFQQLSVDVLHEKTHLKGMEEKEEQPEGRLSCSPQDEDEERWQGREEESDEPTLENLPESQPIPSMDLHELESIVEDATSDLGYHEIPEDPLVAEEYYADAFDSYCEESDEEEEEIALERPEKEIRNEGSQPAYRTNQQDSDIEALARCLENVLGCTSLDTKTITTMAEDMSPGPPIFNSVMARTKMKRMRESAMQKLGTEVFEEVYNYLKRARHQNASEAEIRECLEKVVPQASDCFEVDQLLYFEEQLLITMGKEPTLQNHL

[2] = target: T2, Muscarinic acetylcholine receptor M2 (Homo sapiens) (UniProt P08172); assay: Selectivity interaction (GPCR panel (PDSP screen)) EUB0001079a CHRM2; conditions: at 10 µM
T2 sequence (whole entry): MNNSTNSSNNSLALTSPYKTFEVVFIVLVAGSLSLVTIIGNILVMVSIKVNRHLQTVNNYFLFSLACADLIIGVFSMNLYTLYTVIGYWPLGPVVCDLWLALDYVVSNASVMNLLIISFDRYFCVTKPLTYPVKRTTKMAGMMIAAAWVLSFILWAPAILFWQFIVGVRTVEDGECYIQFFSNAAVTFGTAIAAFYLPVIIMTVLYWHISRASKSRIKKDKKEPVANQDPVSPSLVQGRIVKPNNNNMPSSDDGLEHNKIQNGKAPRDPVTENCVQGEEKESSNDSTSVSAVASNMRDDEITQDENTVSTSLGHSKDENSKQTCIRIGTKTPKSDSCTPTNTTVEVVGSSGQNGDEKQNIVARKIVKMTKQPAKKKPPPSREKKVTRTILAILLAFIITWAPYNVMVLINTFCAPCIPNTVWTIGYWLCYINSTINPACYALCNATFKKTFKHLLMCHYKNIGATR

[3] = target: T3, Serine/threonine-protein kinase Nek9 (Homo sapiens) (UniProt Q8TD19); assay: Selectivity interaction (ActivX KiNativ screen (ex vivo kinase selectivity in human PBMCs)) EUB0001619a NEK9; type: cell-based; conditions: PBMC, at 1 µM
T3 sequence (whole entry): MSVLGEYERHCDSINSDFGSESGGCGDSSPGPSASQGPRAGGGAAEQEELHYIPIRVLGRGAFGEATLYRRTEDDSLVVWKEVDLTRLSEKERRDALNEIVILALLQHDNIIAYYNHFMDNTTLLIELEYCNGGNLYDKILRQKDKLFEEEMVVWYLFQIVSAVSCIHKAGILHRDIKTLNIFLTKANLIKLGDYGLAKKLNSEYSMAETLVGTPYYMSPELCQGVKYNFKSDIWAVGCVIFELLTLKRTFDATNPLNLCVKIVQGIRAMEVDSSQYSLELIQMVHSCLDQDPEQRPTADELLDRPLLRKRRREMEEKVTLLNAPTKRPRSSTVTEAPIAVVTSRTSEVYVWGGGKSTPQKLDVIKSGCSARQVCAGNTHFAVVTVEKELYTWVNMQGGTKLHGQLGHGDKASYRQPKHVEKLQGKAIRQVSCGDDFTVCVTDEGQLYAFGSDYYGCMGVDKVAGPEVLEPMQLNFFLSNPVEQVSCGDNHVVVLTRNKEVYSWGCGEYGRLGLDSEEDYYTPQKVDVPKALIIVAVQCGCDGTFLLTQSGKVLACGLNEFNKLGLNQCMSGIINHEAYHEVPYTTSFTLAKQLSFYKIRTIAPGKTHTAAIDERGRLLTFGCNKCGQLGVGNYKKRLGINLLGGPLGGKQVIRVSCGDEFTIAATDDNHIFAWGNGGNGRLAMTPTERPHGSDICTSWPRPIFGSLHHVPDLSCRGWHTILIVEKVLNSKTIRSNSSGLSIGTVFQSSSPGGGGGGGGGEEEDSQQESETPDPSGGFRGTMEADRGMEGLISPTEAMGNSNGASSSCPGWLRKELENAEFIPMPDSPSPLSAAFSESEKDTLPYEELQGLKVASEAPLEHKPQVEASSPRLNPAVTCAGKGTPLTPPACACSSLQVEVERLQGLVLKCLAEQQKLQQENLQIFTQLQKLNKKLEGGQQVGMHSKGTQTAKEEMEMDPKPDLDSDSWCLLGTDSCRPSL

[4] = target: Protein kinase C theta type (Homo sapiens, UniProt Q04759); assay: Selectivity interaction (KinomeScan (DiscoverX)) EUB0000618a PRKCQ; conditions: at 10 µM
Protein kinase C theta type, sequence (Q04759 whole entry, looked up): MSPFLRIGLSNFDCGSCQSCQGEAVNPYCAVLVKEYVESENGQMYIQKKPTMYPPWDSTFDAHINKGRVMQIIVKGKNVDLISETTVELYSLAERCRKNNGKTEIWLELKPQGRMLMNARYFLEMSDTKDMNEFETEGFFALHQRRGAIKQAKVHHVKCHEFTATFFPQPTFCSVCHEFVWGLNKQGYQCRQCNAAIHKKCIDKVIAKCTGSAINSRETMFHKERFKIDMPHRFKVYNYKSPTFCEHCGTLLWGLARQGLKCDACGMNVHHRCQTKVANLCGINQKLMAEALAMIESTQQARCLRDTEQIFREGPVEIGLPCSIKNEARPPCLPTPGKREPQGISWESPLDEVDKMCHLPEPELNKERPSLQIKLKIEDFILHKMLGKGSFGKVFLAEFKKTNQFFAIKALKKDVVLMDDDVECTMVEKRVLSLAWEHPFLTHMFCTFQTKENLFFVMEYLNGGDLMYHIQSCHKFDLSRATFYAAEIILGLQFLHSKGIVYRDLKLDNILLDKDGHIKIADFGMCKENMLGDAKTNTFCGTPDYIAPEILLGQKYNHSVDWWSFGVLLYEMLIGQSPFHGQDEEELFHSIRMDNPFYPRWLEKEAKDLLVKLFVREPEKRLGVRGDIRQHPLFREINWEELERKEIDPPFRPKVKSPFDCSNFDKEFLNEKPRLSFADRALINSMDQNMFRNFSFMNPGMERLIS

[5] = target: T4, Calcium/calmodulin-dependent protein kinase type IV (Homo sapiens) (UniProt Q16566); assay: Selectivity interaction (Kinase panel (KiNativ target engagement assay in Jurkat cells)) EUB0001635a CAMK4; type: cell-based; conditions: Selectivity number of off-targets 0.0, Selectivity number of targets 233.0, Source Knowledge https://www.sciencedirect.com/science/article/pii/S2451945619300674?via%3Dihub, at 1 µM
T4 sequence (whole entry): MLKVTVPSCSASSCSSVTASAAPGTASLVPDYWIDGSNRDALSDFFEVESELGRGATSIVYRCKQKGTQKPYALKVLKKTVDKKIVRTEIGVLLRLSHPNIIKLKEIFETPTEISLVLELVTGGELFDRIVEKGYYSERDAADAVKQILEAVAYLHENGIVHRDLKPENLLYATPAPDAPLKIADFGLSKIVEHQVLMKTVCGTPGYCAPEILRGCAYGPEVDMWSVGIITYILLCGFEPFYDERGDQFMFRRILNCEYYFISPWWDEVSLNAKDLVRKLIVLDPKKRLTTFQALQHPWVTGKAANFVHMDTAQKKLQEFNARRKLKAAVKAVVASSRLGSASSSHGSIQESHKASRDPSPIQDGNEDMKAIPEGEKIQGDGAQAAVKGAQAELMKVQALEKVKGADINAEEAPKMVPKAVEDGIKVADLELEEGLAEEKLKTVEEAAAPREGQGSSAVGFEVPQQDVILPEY

[6] = target: Protein arginine N-methyltransferase 3 (Homo sapiens, UniProt O60678); assay: Selectivity interaction (Methyltransferase screen (Scintillation proximity assays)) EUB0000255b PRMT3
Protein arginine N-methyltransferase 3, sequence (O60678 2-531 limits assumed): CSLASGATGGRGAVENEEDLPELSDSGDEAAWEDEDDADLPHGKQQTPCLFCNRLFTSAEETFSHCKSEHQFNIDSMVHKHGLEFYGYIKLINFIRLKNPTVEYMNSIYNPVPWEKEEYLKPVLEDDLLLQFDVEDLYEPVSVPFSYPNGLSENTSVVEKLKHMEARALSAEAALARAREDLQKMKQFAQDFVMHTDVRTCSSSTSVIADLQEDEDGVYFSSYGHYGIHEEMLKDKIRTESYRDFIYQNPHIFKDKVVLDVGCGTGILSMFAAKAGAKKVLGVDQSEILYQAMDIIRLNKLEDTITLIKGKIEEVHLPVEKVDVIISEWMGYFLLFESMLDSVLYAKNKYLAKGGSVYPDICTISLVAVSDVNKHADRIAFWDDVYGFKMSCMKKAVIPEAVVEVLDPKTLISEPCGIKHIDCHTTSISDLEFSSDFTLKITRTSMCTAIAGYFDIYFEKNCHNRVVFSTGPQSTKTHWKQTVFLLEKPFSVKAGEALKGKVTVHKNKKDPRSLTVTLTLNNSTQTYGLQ

Estrogen receptor, sequence (P03372 whole entry): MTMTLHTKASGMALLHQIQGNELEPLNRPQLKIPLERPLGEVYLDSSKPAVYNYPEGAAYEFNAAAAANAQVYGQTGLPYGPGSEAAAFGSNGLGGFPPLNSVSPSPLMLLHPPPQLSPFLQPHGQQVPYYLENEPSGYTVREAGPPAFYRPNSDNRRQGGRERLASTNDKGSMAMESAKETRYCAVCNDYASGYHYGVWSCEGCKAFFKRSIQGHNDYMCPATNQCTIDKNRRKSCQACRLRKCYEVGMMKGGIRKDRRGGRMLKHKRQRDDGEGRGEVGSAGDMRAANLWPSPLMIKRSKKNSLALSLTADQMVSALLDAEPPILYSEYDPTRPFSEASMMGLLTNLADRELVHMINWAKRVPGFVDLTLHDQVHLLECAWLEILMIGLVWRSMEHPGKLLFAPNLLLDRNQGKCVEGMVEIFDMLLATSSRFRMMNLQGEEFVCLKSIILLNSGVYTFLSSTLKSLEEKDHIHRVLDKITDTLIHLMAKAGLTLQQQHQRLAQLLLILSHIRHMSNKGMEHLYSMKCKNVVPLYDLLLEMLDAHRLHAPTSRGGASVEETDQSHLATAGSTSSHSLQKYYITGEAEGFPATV

IC50 (Estrogen receptor): > 30 µM
SMILES: CCC(=O)N1CC[C@H](Nc2ncnc3c2CN(c2cnc(OC)c(C(F)(F)F)c2)CC3)C1 [LENIOLISIB]

SMILES: COCC(=O)NC/C=C/c1ccc2ncnc(Nc3ccc(Oc4ccc(C)nc4)c(C)c3)c2c1 [CP-724714]
% of control [1]: 100%

SMILES: Nc1cnc(N2CCc3cc(S(=O)(=O)Nc4c(F)cc(Cl)cc4F)cc(N4CCCC4=O)c32)nc1 [TP-020n]
% of inhibition [2]: 3.7%

SMILES: N#Cc1cccc(-c2c[nH]c3ncnc(N4CCOCC4)c23)c1
% of inhibition [3]: 1%

SMILES: O[C@H]1CC[C@H](Nc2ncc3nc(Nc4c(F)cc(F)cc4F)n([C@H]4CCOC4)c3n2)CC1
% of control [4]: 100%

SMILES: C=CC(=O)Nc1ccc(C(=O)Nc2[nH]nc3c2CN(C(=O)N[C@H](CN(C)C)c2ccccc2)C3(C)C)cc1
% of engagement [5]: -6.4%

SMILES: COCCN1CCC(c2cc(CN(C)C(=O)c3cccc(Oc4ccccc4)c3)ccn2)CC1
% activity ([6]; at 1 µM): > 95% | % activity ([6]; at 10 µM): > 90%

From ChEMBL document CHEMBL5465560, “Selectivity Literature for EUbOPEN Chemogenomic Library” (2024)
